Test results published in patent US20250169495A1, “COMPOSITIONS AND METHODS FOR CONTROLLING DROSOPHILA FLIES” (Rutgers, The State University of New Jersey, priority 2023, published 2025).

Legend:
[1] = system: Drosophila suzukii; test: Field cage experiments, cultivated highbush blueberry bushes; format: in vivo
Protocol: Field cage experiments were conducted from June until July using highbush blueberries (V. corymbosum var. ‘Bluecrop’). The studies were carried out in 5.5 m long×2.7 m tall cages, constructed with a PVC pipe frame covered with No-See-Um mesh (Quest Outfitters Inc., Sarasota, FL, USA) (FIG. 6C). Cages were placed in separate rows within a blueberry field, with bushes spaced approx. 0.76 m apart within the rows and 3.05 m between rows. Each row contained two cages at least 9 m in distance. To avoid interference between treatments, alternate cages were used during testing, ensuring that no adjacent cages contained sachets simultaneously. Two, 3-m rebar poles were used to reinforce the mesh on the long sides of each cage as well as 10 cm long garden staples to hold mesh flush to the ground, while the shorter ends were secured with clips to allow access to the cage. Each cage contained five blueberry bushes approx. 1.5 m in height. Sachets containing ethyl butanoate, ethyl (E)-but-2-enoate, or 2-pentylfuran were prepared as described before. To test the effects of the repellents on the treated (focal) bush and in neighboring bushes at various distances, two sachets of the same compound were hung from one of the end bushes in each cage (FIG. 6D). There were four treatments: 1) ethyl butanoate, 2) ethyl (E)-but-2-enoate, 3) 2-pentylfuran, and 4) control (no repellent). Each treatment was replicated four times, with each cage assigned to a single treatment, resulting in a total of 16 cages. Twenty-four hours after deploying the sachets, 120 flies (approximately 60 males and 60 females) were released into each cage at 18:00 hrs (N=120 flies×4 treatments×4 replicates=1,920 total flies). To ensure even distribution within the cages, 30 flies were released at four equidistant points between the bushes. A pre-sampling of the berries, conducted before the flies were released, confirmed the absence of any infestation. Berries were then collected 1-, 2-, and 3-days post-treatment. From every other bush (starting at the focal bush) in the cage, 50 berries from the top half and 50 from the bottom half were collected into two separate 236.6 mL deli containers lined with two cotton pads. From each berry sample, a random subsample of 10 berries were examined and egg counts recorded before being returned to the original container. The blueberries were incubated on a light bench in the laboratory for up to two weeks, as previously described, and adult emergence was recorded. The sachets were weighed before deployment and 3 days after deployment to measure the emission rates of each compound. Field cage data for both oviposition and adult emergence were non-normal, so non-parametric tests were applied using R statistical software. The effects of ‘Treatment’ (untreated control, ethyl butanoate, ethyl (E)-but-2-enoate, and 2-pentylfuran) across ‘Bush Position’ (focal, center, end) and ‘Day After Treatment’ (1, 2, 3 DAT) were assessed using the Kruskal-Wallis Test. When significant Treatment effects were found, post-hoc separation was performed using Dunn's Test.

[2] = system: Drosophila suzukii adults; test: Multiple choice bioassay #1: anthracnose-induced volatiles, gated traps with blueberries; format: in vivo; conditions: 50 μL neat volatile added to blueberry fruit in gated trap; 15 traps per arena; 24 h; n=4
Protocol: These bioassays were done in arenas that consisted of a dome cage (60 cm width×60 cm length x 60 cm height; BugDorm-2120 Insect tent; shop.bugdorm.com) (FIG. 1A). Within each arena, 15 gated traps were positioned randomly in a circle (40 cm diameter) at equal distance with each trap 8.4 cm apart along the circumference (FIG. 1A). Each gated trap consisted of 50 mL polystyrene tubes (Fisher Scientific, Nazareth, PA, USA) covered with aluminum foil and sealed with Parafilm®, with a 4 mm-diameter hole in the center of the Parafilm to provide an entrance to flies. All traps had equal quantities (ca. 5 g) of store-bought organic blueberry fruit (n=5); fruit were sterilized with bleach prior to the study (10% bleach for 2 min, rinsed three times in distilled water). One of the 15 traps served as a control (with blueberry fruit only) and the remaining 14 traps had one of the anthracnose volatile compounds added to the blueberry fruit. The 14 compounds tested were: 3-hydroxy-2-butanone, styrene, (E)-2-hexen-1-ol, ethyl 3-hydroxy-3-methylbutanoate, 2-methyl-1-butanol, ethyl propanoate, 2-methyl-1-propanol, diethyl carbonate, 2-methylpropanal, 3-methyl-1-butanol, ethyl 2-methylpropanoate, ethyl butanoate, ethyl (E)-but-2-enoate, and 3-methyl-3 buten-1-ol (see Results). Each volatile (50 μL, neat) was released from a 1 mL polyethylene vial (Globe Scientific Inc., Paramus, NJ, USA) with a piece of cotton placed inside each trap (control traps had vials with cotton but without the volatile). A vial with a cotton ball soaked with deionized water was placed in the middle of the arena to provide flies with water during the experiment. Roughly 300 D. suzukii adults (1:1 male: female ratio) were released inside each arena and the number and sex of flies inside treatment and control traps was recorded after 24 h. The experiment started at 1:00 p.m., was replicated 4 times, and was done in a laboratory under 22+2° C., 55+5% RH, 16:8 (L:D) h.
Data from multiple choice assays on the percent of male and female D. suzukii adults responding to each volatile were compared using ANOVA (Minitab version 17; Minitab Inc., State College, PA, USA). The ANOVA model included treatment, sex, and their interaction as fixed factors and block (replicate) as a random factor. A multi-comparison Tukey test (Minitab) was used to determine differences among treatments. Percent data were arcsine square-root transformed prior to ANOVA. Pairwise choice assays were analyzed using G-tests with William's correction. Non-responders were excluded from the statistical analyses.

| SMILES | egg counts ([1]; 1 DAT, central bush) | egg counts ([1]; 1 DAT, end bush) | adult emergence ([1]; 3 DAT, center bush) | adult emergence ([1]; 3 DAT, focal bush) | number of flies captured relative to the control [2] | adult emergence ([1]; 1 DAT, center bush) | adult emergence ([1]; 1 DAT, end bush) | adult emergence ([1]; 2 DAT, center bush) | egg counts ([1]; 2 DAT, center bush) | adult emergence ([1]; 2 DAT, end bush) | egg counts ([1]; 2 DAT, end bush) | egg counts ([1]; 3 DAT, center bush) | adult emergence ([1]; 3 DAT, end bush) | egg counts ([1]; 3 DAT, end bush) | egg counts ([1]; 3 DAT, focal bush) |
| --- | --- | --- | --- | --- | --- | --- | --- | --- | --- | --- | --- | --- | --- | --- | --- |
| CCCCCc1ccco1 [2-pentylfuran, reference compound] | lower | fewest eggs | lowest adult emergence | lowest adult emergence |  |  |  |  |  |  |  |  |  |  |  |
| C/C=C/C(=O)OCC [ethyl (E)-but-2-enoate] |  | fewest eggs | lowest adult emergence | lowest adult emergence | reduced the number of flies captured relative to the control | fewest adults emerge | fewest adults emerge | fewest adults emerge | lowest egg counts | fewest adults emerge | lowest egg counts | lowest egg count | significantly different compared to the other repellents | lowest egg count | lowest egg count |
| CCCC(=O)OCC [ethyl butanoate] |  |  |  |  | reduced the number of flies captured relative to the control |  |  |  |  |  |  |  |  |  |  |
